Measurements: paper PMC10449848, “Structural basis of lipid-droplet localization of 17-beta-hydroxysteroid dehydrogenase 13” (Nature Communications, 2023)
Values joined by “and” are separate entries in the source; they are usually repeats but may differ in a detail not shown here. Identical values can stand only once.

Key:
[1] = molecular target: T1, human HSD17B13 (Homo sapiens, UniProt Q7Z5P4); test: Co-factor (NAD+ / NADP) dependency biochemical assay, NAD(P)H-Glo readout, uninhibited vs inhibited reactions; conditions: 30 μM 1, 20 nM protein
T1 construct: human HSD17B13 (residues 2-300, NP_835236.2); 10x His (N); TEV protease site (N); made in house; host or cells: Sf9 (baculovirus)
T1 sequence (Q7Z5P4 2-300): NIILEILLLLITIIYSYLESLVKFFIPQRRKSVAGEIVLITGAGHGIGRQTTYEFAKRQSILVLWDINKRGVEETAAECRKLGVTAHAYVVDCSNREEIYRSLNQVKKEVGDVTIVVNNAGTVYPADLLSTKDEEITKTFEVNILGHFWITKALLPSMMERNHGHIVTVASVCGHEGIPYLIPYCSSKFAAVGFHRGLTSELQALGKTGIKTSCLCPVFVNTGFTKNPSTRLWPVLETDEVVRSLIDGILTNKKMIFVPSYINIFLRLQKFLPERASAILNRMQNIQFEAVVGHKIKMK
Method: Dependency of co-factor (NAD^+ and NADP^+) was determined using a purified protein HSD17B13 biochemical enzyme activity assay, using NAD(P)H-Glo luciferase readout (Promega). Substrates β-estradiol (Sigma, E8875) and Leukotriene B4 (LTB4, Cayman), 15 μM FAC in assay buffer (25 mM Tris-HCl (Sigma T2444) and 0.02% Triton X-100, pH 7.6), and 500 µM FAC co-factor (NAD^+ or NADP, Sigma, N8285) in assay buffer were added (2.5 µL/well each) to 384-well assay plates (Corning 3824) containing 2.5 μL of either 30 μM FAC inhibitor in 1% DMSO/assay buffer or vehicle (1% DMSO/assay buffer), in triplicate. The reaction was initiated by the addition of 2.5 µL/well-purified HSD17B13 protein (20 nM FAC in assay buffer). Compound, substrate, co-factor, and HSD17B13 protein were incubated in the dark at room temperature for 2 hours before the addition of 10 µL/well NAD(P)H-Glo detection reagent, prepared from luciferase detection reagent and reductase/reductase substrate, as per manufacturer’s instructions (Promega, G9061). Detection reagent was incubated in the dark for 1 hour at room temperature before plates were read on the Envision plate reader (Perkin Elmer) using a luminescent protocol. Data expressed as relative luminescent units (RLUs) were exported from the plate reader and plotted in GraphPad Prism.

[2] = molecular target: T2, human HSD17B11 (Homo sapiens, UniProt Q8NBQ5); test: Thermal shift assay (static light scattering, Tagg), human HSD17B11; format: binding; conditions: Fig. 6d, 500 μM NAD+
T2 construct: human HSD17B11 (residues 2-300, NP_057329.3); 10x His (N); TEV protease site (N); made in house; host or cells: Sf9 (baculovirus)
T2 sequence (Q8NBQ5 2-300): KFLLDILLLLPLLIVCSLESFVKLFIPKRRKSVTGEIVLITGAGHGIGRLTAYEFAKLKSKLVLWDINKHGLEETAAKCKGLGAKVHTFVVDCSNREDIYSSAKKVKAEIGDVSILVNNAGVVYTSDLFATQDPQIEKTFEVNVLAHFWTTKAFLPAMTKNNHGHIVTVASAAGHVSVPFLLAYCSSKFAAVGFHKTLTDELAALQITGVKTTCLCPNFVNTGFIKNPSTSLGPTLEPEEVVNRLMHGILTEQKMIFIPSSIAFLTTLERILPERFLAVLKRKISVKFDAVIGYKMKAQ
Source text: Because of the low enzymatic activities of dog wild-type HSD17B13 (Fig. 6a) and HSD17B11 with β-estradiol, it was difficult to measure compound inhibition of these proteins in a biochemical assay and we instead utilized direct binding methods to compare compounds interaction with different proteins. To understand ligand binding, we tested several approaches such as surface plasmon resonance and isothermal calorimetry. Like many membrane/detergent-associated proteins, however, these methods were not amenable for HSD17B13. We next turned to thermal shift assays (TSA) for comparing ligand binding affinities. TSA measures the changes in the thermal denaturation temperature of a protein under different conditions such as the presence compound, changes in buffer conditions, or sequence mutations. There are various readouts including intrinsic fluorescence or light scattering signals. We chose the static light scattering methods to detect the temperatures at which our proteins start to aggregate (Tagg), which are more suitable for membrane proteins that require detergent micelles for stability. Given that in theory[51] and in practice Tagg continues to increase with concentration of ligands far above their IC50s, we used high cofactor and inhibitor concentrations in the TSA experiments to maximize the ligand binding signal.
TSA studies were run on the UNit instrument (Unchained Labs, CA, USA). Experiments were run in either 25 mM sodium phosphate pH 7, 150 mM NaCl, 10% glycerol, 1 mM TCEP, 0.05% DDM, + different cofactors (NAD^+, NADH, NADP, NADPH; MilliporeSigma) or 25 mM HEPES pH 7.2, 300 mM NaCl, 0.5 mM TCEP, 0.05% DDM, 10% glycerol, ±500 µM NAD^+, and ±100 µM compound 1 (from 2 mM DMSO stock) or DMSO or 50 mM Hepes pH 7.5, 300 mM NaCl, 0.5 mM TCEP, 0.05% DDM, 500 µM NAD^+, ± 50 µM compounds (from 2 mM stock) or DMSO. Protein aggregation was measured by static light scattering at 266 and 473 nm with a 1 °C/sec ramp rate from 20-80 °C. The data was processed using the UNcle software (Unchained Labs, CA, USA), and temperatures at which the protein started aggregation were recorded as Tagg. Reported Tagg and analysis were based on measurements at 266 nm unless otherwise indicated. The protein concentration used was 10.4 μM.

O=C(NC[C@]1(O)CC[C@H](COc2ccccc2F)CC1)c1ccc(O)c(F)c1 [Compound 1]
signal of inhibited reaction ([1]; LTB4 + NAD): 49880 RLU and 52640 RLU | signal of inhibited reaction ([1]; LTB4 + NADP): 49240 RLU and 47920 RLU | signal of inhibited reaction ([1]; β-estradiol + NAD): 48200 RLU and 48320 RLU | signal of inhibited reaction ([1]; β-estradiol + NADP): 47760 RLU and 49720 RLU | effect on protein stability in TSA [2]: neither 1 nor 2 showed an effect on protein stability | Tagg ([2]; 50 µM compound): 37.65 °C and 35.79 °C and 38.54 °C and 39 °C and 39.99 °C and 38.79 °C and 39.64 °C and 38.95 °C
